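Cultured in 96-well plates, cells were exposed to test compound for 48 hours across five concentrations. GI50: concentration for 50% inhibition of growth.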 Active and inactive are the calls of the source. Rule as the data show it: active = GI50 up to about 1.1 µM and inactive = higher.
How the values were obtained:
Assay in all cases: DTP human tumour cell line panel, 48 h
786-0 = tested on: 786-0
A498 = tested on: A498
A549 = tested on: A549
ACHN = tested on: ACHN
BT-549 = tested on: BT-549
CAKI-1 = tested on: CAKI-1
CCRF-CEM = tested on: CCRF-CEM
COLO 205 = tested on: COLO 205
DU-145 = tested on: DU-145
EKVX = tested on: EKVX
HCC 2998 = tested on: HCC 2998
HCT-15 = tested on: HCT-15
HL-60 = tested on: HL-60
HOP-62 = tested on: HOP-62
HOP-92 = tested on: HOP-92
HT-29 = tested on: HT-29
Hs-578T = tested on: Hs-578T
IGROV-1 = tested on: IGROV-1
K562 = tested on: K562
KM12 = tested on: KM12
LOX IMVI = tested on: LOX IMVI
M14 = tested on: M14
MCF7 = tested on: MCF7
MDA-MB-231 = tested on: MDA-MB-231
MDA-MB-435 = tested on: MDA-MB-435
MDA-N = tested on: MDA-N
MOLT-4 = tested on: MOLT-4
Malme-3M = tested on: Malme-3M
NCI-H23 = tested on: NCI-H23
NCI-H460 = tested on: NCI-H460
NCI-H522 = tested on: NCI-H522
NCI/ADR-RES = tested on: NCI/ADR-RES
OVCAR-3 = tested on: OVCAR-3
OVCAR-4 = tested on: OVCAR-4
OVCAR-5 = tested on: OVCAR-5
OVCAR-8 = tested on: OVCAR-8
PC-3 = tested on: PC-3
RPMI-8226 = tested on: RPMI-8226
RXF 393 = tested on: RXF 393
SF-268 = tested on: SF-268
SF-295 = tested on: SF-295
SF-539 = tested on: SF-539
SK-MEL-28 = tested on: SK-MEL-28
SK-MEL-2 = tested on: SK-MEL-2
SK-MEL-5 = tested on: SK-MEL-5
SK-OV-3 = tested on: SK-OV-3
SN12C = tested on: SN12C
SNB-19 = tested on: SNB-19
SNB-75 = tested on: SNB-75
SR = tested on: SR
SW-620 = tested on: SW-620
T47D = tested on: T47D
TK-10 = tested on: TK-10
U-251 = tested on: U-251
UACC-257 = tested on: UACC-257
UACC-62 = tested on: UACC-62
UO-31 = tested on: UO-31
HCT-116 = tested on: HCT-116
NCI-H226 = tested on: NCI-H226

`Nc1ccc(-c2nc3ccccc3s2)cc1Br` was tested, and the GI50 (786-0) was 76.9 µM (inactive), the GI50 (A498) was 2.44 µM (inactive) and the GI50 (A549) was > 100 µM (inactive). The GI50 (ACHN) was > 80.9 µM (inactive), the GI50 (BT-549) was > 56.8 µM (inactive) and the GI50 (CAKI-1) was > 100 µM (inactive). The GI50 (CCRF-CEM) was 32 µM (inactive), the GI50 (COLO 205) was > 100 µM (inactive) and the GI50 (DU-145) was > 100 µM (inactive). For the same compound, the GI50 (EKVX) was 26.4 µM (inactive), the GI50 (HCC 2998) was 72.6 µM (inactive) and the GI50 (HCT-15) was 62.8 µM. For the same compound, the GI50 (HL-60) was > 100 µM (inactive), the GI50 (HOP-62) was 29.9 µM (inactive) and the GI50 (HOP-92) was 26.5 µM (inactive). The GI50 (HT-29) was > 100 µM (inactive), the GI50 (Hs-578T) was 24 µM (inactive) and the GI50 (IGROV-1) was < 0.01 µM (active). For the same compound, the GI50 (K562) was 87.1 µM (inactive), the GI50 (KM12) was > 92.9 µM (inactive) and the GI50 (LOX IMVI) was > 80.9 µM (inactive). For the same compound, the GI50 (M14) was 97.9 µM (inactive), the GI50 (MCF7) was < 0.01 µM (active) and the GI50 (MDA-MB-231) was 52.6 µM (inactive). The GI50 (MDA-MB-435) was > 100 µM (inactive), the GI50 (MDA-N) was > 100 µM (inactive) and the GI50 (MOLT-4) was 31.4 µM (inactive). For the same compound, the GI50 (Malme-3M) was > 100 µM (inactive), the GI50 (NCI-H23) was 63.7 µM (inactive) and the GI50 (NCI-H460) was 4.31 µM (inactive). The GI50 (NCI-H522) was > 100 µM (inactive), the GI50 (NCI/ADR-RES) was > 100 µM (inactive) and the GI50 (OVCAR-3) was < 0.01 µM (active). The GI50 (OVCAR-4) was > 100 µM (inactive), the GI50 (OVCAR-5) was 0.134 µM (active) and the GI50 (OVCAR-8) was > 75.2 µM (inactive). For the same compound, the GI50 (PC-3) was 69.7 µM (inactive), the GI50 (RPMI-8226) was 70.8 µM (inactive) and the GI50 (RXF 393) was > 38.9 µM (inactive). The GI50 (SF-268) was 61 µM (inactive), the GI50 (SF-295) was 66.7 µM (inactive) and the GI50 (SF-539) was > 51.3 µM (inactive). For the same compound, the GI50 (SK-MEL-28) was > 100 µM (inactive), the GI50 (SK-MEL-2) was > 100 µM (inactive) and the GI50 (SK-MEL-5) was > 100 µM (inactive). The GI50 (SK-OV-3) was > 71.4 µM (inactive), the GI50 (SN12C) was > 100 µM (inactive) and the GI50 (SNB-19) was 60.4 µM (inactive). For the same compound, the GI50 (SNB-75) was 31.3 µM (inactive), the GI50 (SR) was > 94.8 µM (inactive) and the GI50 (SW-620) was > 100 µM (inactive). The GI50 (T47D) was 58.1 µM (inactive), the GI50 (TK-10) was 0.0141 µM (active) and the GI50 (U-251) was 57.5 µM (inactive). The GI50 (UACC-257) was > 100 µM (inactive), the GI50 (UACC-62) was > 100 µM (inactive) and the GI50 (UO-31) was 27.5 µM (inactive).
In the case of `COc1cc(/C=C2\N=C(c3ccccc3)N(/N=C3\C(=O)Nc4ccccc43)C2=O)cc(OC)c1OC`, the GI50 (786-0) is reported as > 100 µM (inactive), the GI50 (A498) is reported as > 100 µM (inactive) and the GI50 (A549) is reported as > 100 µM (inactive). The GI50 (ACHN) was > 100 µM (inactive), the GI50 (BT-549) was > 100 µM (inactive) and the GI50 (CAKI-1) was > 100 µM (inactive). For the same compound, the GI50 (CCRF-CEM) was 37.1 µM (inactive), the GI50 (COLO 205) was 57.4 µM (inactive) and the GI50 (DU-145) was > 100 µM (inactive). The GI50 (EKVX) was 46.2 µM (inactive), the GI50 (HCC 2998) was > 100 µM (inactive) and the GI50 (HCT-116) was > 100 µM (inactive). The GI50 (HCT-15) was greater than 100 µM, the GI50 (HL-60) was 94.4 µM (inactive) and the GI50 (HOP-62) was > 100 µM (inactive). For the same compound, the GI50 (HOP-92) was 40.3 µM (inactive), the GI50 (HT-29) was > 100 µM (inactive) and the GI50 (Hs-578T) was 54 µM (inactive). For the same compound, the GI50 (IGROV-1) was > 100 µM (inactive), the GI50 (K562) was > 100 µM (inactive) and the GI50 (KM12) was > 100 µM (inactive). The GI50 (LOX IMVI) was 90.8 µM (inactive), the GI50 (M14) was > 100 µM (inactive) and the GI50 (MCF7) was > 100 µM (inactive). The GI50 (MDA-MB-231) was > 100 µM (inactive), the GI50 (MDA-MB-435) was 39.1 µM (inactive) and the GI50 (MDA-N) was 42.3 µM (inactive). For the same compound, the GI50 (MOLT-4) was 25.4 µM (inactive), the GI50 (Malme-3M) was 58.5 µM (inactive) and the GI50 (NCI-H226) was 41.7 µM (inactive). For the same compound, the GI50 (NCI-H23) was 86.1 µM (inactive), the GI50 (NCI-H460) was > 100 µM (inactive) and the GI50 (NCI-H522) was 27.8 µM (inactive). The GI50 (NCI/ADR-RES) was > 100 µM (inactive), the GI50 (OVCAR-3) was 24.9 µM (inactive) and the GI50 (OVCAR-4) was 61.9 µM (inactive). The GI50 (OVCAR-5) was > 100 µM (inactive), the GI50 (OVCAR-8) was 94.2 µM (inactive) and the GI50 (PC-3) was > 100 µM (inactive). The GI50 (RXF 393) was > 100 µM (inactive), the GI50 (SF-268) was 66.4 µM (inactive) and the GI50 (SF-295) was > 100 µM (inactive). The GI50 (SF-539) was > 100 µM (inactive), the GI50 (SK-MEL-28) was > 100 µM (inactive) and the GI50 (SK-MEL-2) was > 100 µM (inactive). The GI50 (SK-MEL-5) was > 100 µM (inactive), the GI50 (SK-OV-3) was > 100 µM (inactive) and the GI50 (SN12C) was > 100 µM (inactive). The GI50 (SNB-19) was > 100 µM (inactive), the GI50 (SNB-75) was > 100 µM (inactive) and the GI50 (SR) was 38.6 µM (inactive). For the same compound, the GI50 (SW-620) was > 100 µM (inactive), the GI50 (T47D) was > 100 µM (inactive) and the GI50 (TK-10) was > 100 µM (inactive). For the same compound, the GI50 (U-251) was > 100 µM (inactive), the GI50 (UACC-257) was > 100 µM (inactive) and the GI50 (UACC-62) was > 100 µM (inactive). The GI50 (UO-31) was > 100 µM (inactive).
With `Cc1ccc(S(=O)(=O)CNC(=O)C(O)(O)C(F)(F)F)cc1` the GI50 (786-0) was > 100 µM (inactive), the GI50 (A498) was > 100 µM (inactive) and the GI50 (A549) was > 100 µM (inactive). For the same compound, the GI50 (BT-549) was > 100 µM (inactive), the GI50 (CAKI-1) was > 100 µM (inactive) and the GI50 (CCRF-CEM) was > 100 µM (inactive). For the same compound, the GI50 (COLO 205) was > 100 µM (inactive), the GI50 (DU-145) was > 100 µM (inactive) and the GI50 (EKVX) was > 100 µM (inactive). For the same compound, the GI50 (HCC 2998) was > 100 µM (inactive), the GI50 (HCT-116) was > 100 µM (inactive) and the GI50 (HCT-15) was greater than 100 µM. For the same compound, the GI50 (HL-60) was > 100 µM (inactive), the GI50 (HOP-62) was > 100 µM (inactive) and the GI50 (HOP-92) was > 100 µM (inactive). For the same compound, the GI50 (HT-29) was > 100 µM (inactive), the GI50 (Hs-578T) was > 100 µM (inactive) and the GI50 (IGROV-1) was > 100 µM (inactive). The GI50 (K562) was > 100 µM (inactive), the GI50 (KM12) was > 100 µM (inactive) and the GI50 (LOX IMVI) was > 100 µM (inactive). For the same compound, the GI50 (M14) was > 100 µM (inactive), the GI50 (MCF7) was > 100 µM (inactive) and the GI50 (MDA-MB-231) was > 100 µM (inactive). The GI50 (MDA-MB-435) was > 100 µM (inactive), the GI50 (MDA-N) was > 100 µM (inactive) and the GI50 (MOLT-4) was > 100 µM (inactive). For the same compound, the GI50 (Malme-3M) was > 100 µM (inactive), the GI50 (NCI-H23) was > 100 µM (inactive) and the GI50 (NCI-H460) was > 100 µM (inactive). For the same compound, the GI50 (NCI-H522) was > 100 µM (inactive), the GI50 (NCI/ADR-RES) was > 100 µM (inactive) and the GI50 (OVCAR-3) was > 100 µM (inactive). The GI50 (OVCAR-4) was > 100 µM (inactive), the GI50 (OVCAR-5) was > 100 µM (inactive) and the GI50 (OVCAR-8) was > 100 µM (inactive). The GI50 (PC-3) was > 100 µM (inactive), the GI50 (RPMI-8226) was > 100 µM (inactive) and the GI50 (RXF 393) was > 100 µM (inactive). The GI50 (SF-268) was > 100 µM (inactive), the GI50 (SF-295) was > 100 µM (inactive) and the GI50 (SF-539) was > 100 µM (inactive). The GI50 (SK-MEL-28) was > 100 µM (inactive), the GI50 (SK-MEL-2) was > 100 µM (inactive) and the GI50 (SK-MEL-5) was > 100 µM (inactive). The GI50 (SK-OV-3) was > 100 µM (inactive), the GI50 (SN12C) was > 100 µM (inactive) and the GI50 (SNB-19) was > 100 µM (inactive). The GI50 (SR) was > 100 µM (inactive), the GI50 (SW-620) was > 100 µM (inactive) and the GI50 (T47D) was > 100 µM (inactive). The GI50 (TK-10) was > 100 µM (inactive), the GI50 (U-251) was > 100 µM (inactive) and the GI50 (UACC-257) was > 100 µM (inactive). For the same compound, the GI50 (UACC-62) was > 100 µM (inactive) and the GI50 (UO-31) was > 100 µM (inactive).
